Measured values as given in US7153855B2, “Pyrazolopyridinyl pyrimidine therapeutic compounds” (SmithKline Beecham Corporation, priority 2001, dated 2006).

system: HSV-1; test: HSV-1 infection of Vero 76 cells, viral DNA detected by hybridization capture (chemiluminescence); format: cell-based; settings: Human alphaherpesvirus 1; HSV-1 in Vero 76 cells, MOI=0.001, compounds incubated 40–48 hours at 37° C.; read-out: IC50
Text: In the following example, “MEM” means Minimal Essential Media; “FBS” means Fetal Bovine Serum; “NP40” and “Igepal” are detergents; “MOI” means Multiplicity of Infection; “NaOH” means sodium hydroxide; “MgCl2” means magnesium chloride; “dATP” means deoxyadenosine 5′ triphosphate; “dUTP” means deoxyuridine 5′ triphosphate; “dCTP” means dexoxycytidine 5′ triphosphate; “dGTP” means deoxyguanosine 5′ triphosphate; “GuSCN” means Guanidinium thiocyanate; “EDTA” means ethylenediamine tetraacetic acid; “TE” means Tris-EDTA; “SCC” means sodium chloride/sodium citrate; “APE” means a solution of ammonia acetate, ammonia phosphate, EDTA; “PBS” means phosphate buffered saline; and “HRP” means horseradish peroxidase.
Vero 76 cells were maintained in MEM with Earle's salts, L-glutamine, 8% FBS (Hyclone, A-1111-L) and 100 units/mL Penicillin-100 μg/mL Streptomycin. For assay conditions, FBS was reduced to 2%. Cells are seeded into 96-well tissue culture plates at a density of 5×10^4 cells/well after being incubated for 45 min at 37° C. in the presence of HSV-1 or HSV-2 (MOI=0.001). Test compounds are added to the wells and the plates are incubated at 37° C. for 40–48 hours. Cell lysates are prepared as follows: media was removed and replaced with 150 μL/well 0.2 N NaOH with 1% Igepal CA 630 or NP-40. Plates were incubated up to 14 days at room temperature in a humidified chamber to prevent evaporation.
For the detection probe, a gel-purified, digoxigenin-labeled, 710-bp PCR fragment of the HSV UL-15 sequence was utilized. PCR conditions included 0.5 μM primers, 180 μM dTTP, 20 μM dUTP-digoxigenin (Boehringer Mannheim 1558706), 200 μM each of dATP, dCTP, and dGTP, 1×PCR Buffer II (Perkin Elmer), 2.5 mM MgCl2, 0.025 units/μL of AmpliTaq Gold polymerase (Perkin Elmer), and 5 ng of gel-purified HSV DNA per 100 μL Extension conditions were 10 min at 95° C., followed by 30 cycles of 95° C. for 1 min, 55° C. for 30 sec, and 72° C. for 2 min. The amplification was completed with a 10-min incubation at 72° C. Primers were selected to amplify a 728 bp probe spanning a section of the HSV1 UL15 open reading frame (nucleotides 249–977). Single-stranded transcripts were purified with Promega M13 Wizard kits. The final product was mixed 1:1 with a mixture of 6 M GuSCN, 100 mM EDTA and 200 μg/mL herring sperm DNA and stored at 4° C.
The capture DNA plasmid (HSV UL13 region in pUC) was linearized by cutting with Xba I, denatured for 15 min at 95° C. and diluted immediately into Reacti-Bind DNA Coating Solution (Pierce, 17250, diluted 1:1 with TE buffer, pH 8) at 1 ng/μL 75 μL/well were added to Corning (#3922 or 9690) white 96-well plates and incubated at room temperature for at least 4 hrs before washing twice with 300 μL/well 0.2×SSC/0.05% Tween-20 (SSC/T buffer). The plates were then incubated overnight at room temperature with 150 μL/well 0.2 N NaOH, 1% IGEPAL and 10 μg/mL herring sperm DNA.
Twenty-seven (27) μL of cell lysate was combined with 45 μL of hybridization solution (final concentration: 3M GuSCN, 50 mM EDTA, 100 μg/ml salmon sperm DNA, 5×Denhardt's solution, 0.25×APE, and 5 ng of the digoxigenin-labeled detection probe). APE is 1.5 M NH4-acetate, 0.15 M NH4H2 phosphate, and 5 mM EDTA adjusted to pH 6.0. Mineral oil (50 μL) was added to prevent evaporation. The hybridization plates were incubated at 95° C. for 10 minutes to denature the DNA, then incubated at 42° C. overnight. The wells were washed 6× with 300 μL/well SSC/T buffer then incubated with 75 μL/well anti-digoxigenin-HRP-conjugated antibody (Boehringer Mannheim 1207733, 1:5000 in TE) for 30 min at room temperature. The wells were washed 6× with 300 μL/well with PBS/0.05% Tween-20 before 75 μL/well SuperSignal LBA substrate (Pierce) was added. The plates were incubated at room temperature for 30 minutes and chemiluminescence was measured in a Wallac Victor reader.
The following results were obtained for HSV-1.

IC50 [nM] | Structure (SMILES)
1100 | COc1cccc(-c2nn3c(N(C)C)cccc3c2-c2ccnc(NC3CCCC3)n2)c1 [Example 53, 3-[2-(Cyclopentylamino)-4-pyrimidinyl]-2-(3-methoxyphenyl)-N,N-dimethylpyrazolo[1,5-a]pyridin-7-amine]
650 | Oc1cccc(-c2nn3c(NC4CCCC4)cccc3c2-c2ccnc(NC3CCCC3)n2)c1 [Example 54, 3-{7-(Cyclopentylamino)-3-[2-(cyclopentylamino)-4-pyrimidinyl]pyrazolo[1,5-a]pyridin-2-yl}phenol]
100 | c1cc(OCC2CC2)cc(-c2nn3c(NC4CCCC4)cccc3c2-c2ccnc(NC3CCCC3)n2)c1 [Example 55, N-Cyclopentyl-3-[2-(cyclopentylamino)-4-pyrimidinyl]-2-[3-(cyclopropylmethoxy)phenyl]pyrazolo[1,5-a]pyridin-7-amine]
200 | Fc1cccc(-c2nn3c(NC4CCCC4)cccc3c2-c2ccnc(NC3CCCC3)n2)c1 [Example 56, N-Cyclopentyl-3-[2-(cyclopentylamino)-4-pyrimidinyl]-2-(3-fluorophenyl)pyrazolo[1,5-a]pyridin-7-amine]
200 | Clc1cccc(-c2nn3c(NC4CCCC4)cccc3c2-c2ccnc(NC3CCCC3)n2)c1 [Example 57, 2-(3-Chlorophenyl)-N-cyclopentyl-3-[2-(cyclopentylamino)-4-pyrimidinyl]pyrazolo[1,5-a]pyridin-7-amine]
400 | COc1ccc(-c2nn3c(NC4CCCC4)cccc3c2-c2ccnc(NC3CC3)n2)cc1 [Example 58, N-Cyclopentyl-3-[2-(cyclopropylamino)-4-pyrimidinyl]-2-(4-methoxyphenyl)pyrazolo[1,5-a]pyridin-7-amine]
400 | COc1ccc(-c2nn3c(NCCN4CCOCC4)cccc3c2-c2ccnc(NC3CCCC3)n2)cc1 [Example 59, 3-[2-(Cyclopentylamino)-4-pyrimidinyl]-2-(4-methoxyphenyl)-N-[2-(4-morpholinyl)ethyl]pyrazolo[1,5-a]pyridin-7-amine]
400 | COc1ccc(-c2nn3c(NC4CC4)cccc3c2-c2ccnc(NC3CCCC3)n2)cc1 [Example 60, 3-[2-(Cyclopentylamino)-4-pyrimidinyl]-N-cyclopropyl-2-(4-methoxyphenyl)pyrazolo[1,5-a]pyridin-7-amine]
200 | COc1ccc(-c2nn3c(N4CCOCC4)cccc3c2-c2ccnc(NC3CCCC3)n2)cc1 [Example 61, N-Cyclopentyl-4-[2-(4-methoxyphenyl)-7-(4-morpholinyl)pyrazolo[1,5-a]pyridin-3-yl]-2-pyrimidinamine]
100 | COCCNc1cccc2c(-c3ccnc(NC4CCCC4)n3)c(-c3ccc(OC)cc3)nn12 [Example 62, 3-[2-(Cyclopentylamino)-4-pyrimidinyl]-N-(2-methoxyethyl)-2-(4-methoxyphenyl)pyrazolo[1,5-a]pyridin-7-amine]
1200 | COc1ccc(-c2nn3c(N4CCOCC4)cccc3c2-c2ccnc(NC3CC3)n2)cc1 [Example 63, N-Cyclopropyl-4-[2-(4-methoxyphenyl)-7-(4-morpholinyl)pyrazolo[1,5-a]pyridin-3-yl]-2-pyrimidinamine]
300 | COCCNc1cccc2c(-c3ccnc(NC4CC4)n3)c(-c3ccc(OC)cc3)nn12 [Example 64, 3-[2-(Cyclopropylamino)-4-pyrimidinyl]-N-(2-methoxyethyl)-2-(4-methoxyphenyl)pyrazolo[1,5-a]pyridin-7-amine]
500 | COc1ccc(-c2nn3c(NCCN4CCOCC4)cccc3c2-c2ccnc(NC3CC3)n2)cc1 [Example 65, 3-[2-(Cyclopropylamino)-4-pyrimidinyl]-2-(4-methoxyphenyl)-N-[2-(4-morpholinyl)ethyl]pyrazolo[1,5-a]pyridin-7-amine]
1300 | COc1ccc(-c2nn3c(NC4CC4)cccc3c2-c2ccnc(NC3CC3)n2)cc1 [Example 66, N-Cyclopropyl-3-[2-(cyclopropylamino)-4-pyrimidinyl]-2-(4-methoxyphenyl)pyrazolo[1,5-a]pyridin-7-amine]
300 | Oc1ccc(-c2nn3c(NC4CC4)cccc3c2-c2ccnc(NC3CCCC3)n2)cc1 [Example 67, 4-[3-[2-(Cyclopentylamino)-4-pyrimidinyl]-7-(cyclopropylamino)pyrazolo[1,5-a]pyridin-2-yl]phenol]
1200 | Oc1ccc(-c2nn3c(NC4CCCC4)cccc3c2-c2ccnc(NC3CC3)n2)cc1 [Example 68, 4-{7-(Cyclopentylamino)-3-[2-(cyclopropylamino)-4-pyrimidinyl]-pyrazolo[1,5-a]pyridin-2-yl}phenol]
2300 | Oc1ccc(-c2nn3c(NC4CC4)cccc3c2-c2ccnc(NC3CC3)n2)cc1 [Example 69, 4-{7-(Cyclopropylamino)-3-[2-(cyclopropylamino)-4-pyrimidinyl]-pyrazolo[1,5-a]pyridin-2-yl}phenol]
600 | c1cc(NC2CC2)n2nc(-c3ccc(OCC4CC4)cc3)c(-c3ccnc(NC4CCCC4)n3)c2c1 [Example 70, 3-[2-(Cyclopentylamino)-4-pyrimidinyl]-N-cyclopropyl-2-[4-(cyclopropylmethoxy)phenyl]pyrazolo[1,5-a]pyridin-7-amine]
500 | C=CCOc1ccc(-c2nn3c(NC4CCCC4)cccc3c2-c2ccnc(NC3CC3)n2)cc1 [Example 71, 2-[4-(Allyloxy)phenyl]-N-cyclopentyl-3-[2-(cyclopropylamino)-4-pyrimidinyl]pyrazolo[1,5-a]pyridin-7-amine]
1400 | c1cc(NC2CC2)n2nc(-c3ccc(OCC4CC4)cc3)c(-c3ccnc(NC4CC4)n3)c2c1 [Example 72, N-Cyclopropyl-3-[2-(cyclopropylamino)-4-pyrimidinyl]-2-[4-(cyclopropylmethoxy)phenyl]pyrazolo[1,5-a]pyridin-7-amine]
2000 | C=CCOc1ccc(-c2nn3c(NC4CC4)cccc3c2-c2ccnc(NC3CC3)n2)cc1 [Example 73, 2-[4-(Allyloxy)phenyl]-N-cyclopropyl-3-[2-(cyclopropylamino)-4-pyrimidinyl]pyrazolo[1,5-a]pyridin-7-amine]
27000 | CCCCNc1nccc(-c2c(-c3ccc(N4CCOCC4)cc3)nn3c(NCCCC)cccc23)n1 [Example 75, N-Butyl-3-[2-(butylamino)pyrimidin-4-yl]-2-(4-morpholin-4-ylphenyl)pyrazolo[1,5-a]pyridin-7-amine]
2500 | COC(=O)CNc1cccc2c(-c3ccnc(NC4CCCC4)n3)c(-c3ccc(OC)cc3)nn12 [Example 79, Methyl N-[3-[2-(cyclopentylamino)pyrimidin-4-yl]-2-(4-methoxyphenyl)pyrazolo[1,5-a]pyridin-7-yl]glycinate]
600 | COc1ccc(-c2nn3c(NCCCCN)cccc3c2-c2ccnc(NC3CCCC3)n2)cc1 [Example 81, N-[3-[2-(Cyclopentylamino)pyrimidin-4-yl]-2-(4-methoxyphenyl)-pyrazolo[1,5-a]pyridin-7-yl]butane-1,4-diamine]
